According to ChEMBL document CHEMBL2375263, “Identification and design of a novel series of MGAT2 inhibitors” (Bioorg Med Chem Lett, 2013):
Values belong to the compound of their own block, whether it stands above or below them.

How the values were obtained:
Mus musculus [1] = assay: Antiobesity activity in C57Bl6J mouse assessed as inhibition of corn oil-induced triacylglycerol excursion at 5 mg/kg, po administered at 30 mins post corn-oil challenge measured after 2 hrs by oral lipid tolerance test relative to control; format: functional
Mus musculus [2] = assay: Antiobesity activity in C57Bl6J mouse assessed as inhibition of corn oil-induced triacylglycerol excursion at 150 mg/kg, po administered at 30 mins post corn-oil challenge measured after 2 hrs by oral lipid tolerance test relative to control; format: functional
[3] = Tmax in mouse at 100 mg/kg, po; format: ADME, organism-based; parameters: dose 100 mg/kg, route oral; conditions: in vivo
[4] = target: T1, Acyl-CoA wax alcohol acyltransferase 2 (Homo sapiens, UniProt Q6E213); assay: Inhibition of human recombinant AWAT2 expressed in insect cell membrane using cetyl alcohol and [14C]oleoyl coenzyme A as substrate after 10 to 15 mins by liquid scintillation counting
T1 sequence (Q6E213 whole entry): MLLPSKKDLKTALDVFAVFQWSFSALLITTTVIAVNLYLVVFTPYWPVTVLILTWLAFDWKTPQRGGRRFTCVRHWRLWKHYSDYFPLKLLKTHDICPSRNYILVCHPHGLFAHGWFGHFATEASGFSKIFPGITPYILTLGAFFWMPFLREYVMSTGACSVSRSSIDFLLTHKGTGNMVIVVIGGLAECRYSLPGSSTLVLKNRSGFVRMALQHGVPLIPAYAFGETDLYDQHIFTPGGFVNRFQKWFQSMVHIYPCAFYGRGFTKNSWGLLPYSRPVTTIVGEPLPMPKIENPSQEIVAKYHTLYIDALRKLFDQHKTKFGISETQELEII

[5] = target: T2, Acyl-CoA wax alcohol acyltransferase 1 (Homo sapiens, UniProt Q58HT5); assay: Inhibition of human recombinant AWAT1 expressed in insect cell membrane using palmitoleyl alcohol and [14C]stearoyl coenzyme A as substrate after 10 to 15 mins by liquid scintillation counting
T2 sequence (Q58HT5 whole entry): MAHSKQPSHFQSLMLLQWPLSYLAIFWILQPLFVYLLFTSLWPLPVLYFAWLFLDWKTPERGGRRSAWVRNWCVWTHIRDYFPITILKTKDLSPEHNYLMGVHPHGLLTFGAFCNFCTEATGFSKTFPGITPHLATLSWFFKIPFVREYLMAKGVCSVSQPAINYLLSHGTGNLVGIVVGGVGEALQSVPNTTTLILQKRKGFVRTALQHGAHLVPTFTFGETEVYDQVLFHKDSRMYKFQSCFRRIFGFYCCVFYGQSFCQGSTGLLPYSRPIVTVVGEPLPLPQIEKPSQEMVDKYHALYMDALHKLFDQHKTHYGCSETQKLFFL

[6] = target: T3, Diacylglycerol O-acyltransferase 2 (Homo sapiens, UniProt Q96PD7); assay: Inhibition of human recombinant DGAT2 using dioleoyl-sn-glycerol and [14C]oleoyl coenzyme A as substrate after 30 mins by liquid scintillation counting
T3 sequence (Q96PD7 whole entry): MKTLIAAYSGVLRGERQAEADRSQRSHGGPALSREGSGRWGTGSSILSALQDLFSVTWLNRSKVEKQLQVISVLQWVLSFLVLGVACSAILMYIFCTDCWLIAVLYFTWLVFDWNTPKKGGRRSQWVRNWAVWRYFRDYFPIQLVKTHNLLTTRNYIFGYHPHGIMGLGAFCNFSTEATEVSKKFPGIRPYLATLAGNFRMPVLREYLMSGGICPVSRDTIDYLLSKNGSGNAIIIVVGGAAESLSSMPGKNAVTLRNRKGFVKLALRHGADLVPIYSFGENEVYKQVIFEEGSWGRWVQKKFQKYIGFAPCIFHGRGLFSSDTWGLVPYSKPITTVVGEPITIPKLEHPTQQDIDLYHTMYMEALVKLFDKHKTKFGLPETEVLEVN

[7] = target: T4, Diacylglycerol O-acyltransferase 1 (Homo sapiens, UniProt O75907); assay: Inhibition of human recombinant DGAT1 expressed in Sf9 cells using dioleoyl-sn-glycerol and [14C]oleoyl coenzyme A as substrate after 30 mins by liquid scintillation counting
T4 sequence (O75907 whole entry): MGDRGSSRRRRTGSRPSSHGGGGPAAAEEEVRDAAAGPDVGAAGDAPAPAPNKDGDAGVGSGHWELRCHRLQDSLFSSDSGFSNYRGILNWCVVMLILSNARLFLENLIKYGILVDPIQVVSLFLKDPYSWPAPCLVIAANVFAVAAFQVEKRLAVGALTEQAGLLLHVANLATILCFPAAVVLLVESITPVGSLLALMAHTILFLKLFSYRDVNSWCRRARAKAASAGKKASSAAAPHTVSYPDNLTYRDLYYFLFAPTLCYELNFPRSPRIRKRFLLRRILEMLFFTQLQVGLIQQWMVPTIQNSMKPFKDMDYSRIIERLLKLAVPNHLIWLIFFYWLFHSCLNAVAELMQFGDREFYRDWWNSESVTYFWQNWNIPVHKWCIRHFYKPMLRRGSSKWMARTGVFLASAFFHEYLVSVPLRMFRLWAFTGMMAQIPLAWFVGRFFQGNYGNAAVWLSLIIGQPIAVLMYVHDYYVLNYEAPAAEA

[8] = Time dependent inhibition of CYP450 (unknown origin); format: ADME; conditions: human
[9] = Inhibition of CYP450 (unknown origin); format: ADME; conditions: human
[10] = Apparent permeability from apical side to basolateral side of human Caco2 cells at 10 umol/l measured up to 120 mins by LCMS analysis; format: ADME, cell-based; conditions: Caco-2
[11] = Dissociation constant, pKa of the compound; format: physicochemical
[12] = Intrinsic clearance in human liver microsomes as 1 umol/l measured up to 30 mins by LC-MS analysis; format: ADME, Microsome; conditions: read-out: CLH
[13] = Lipophilicity, log D of the compound at pH 7.4; format: physicochemical; conditions: buffer
Liver microsomes = assay: Ratio of compound-glutathione adduct formation to clozapine-glutathione adduct formation in human liver microsomes at 10 umol/l after 30 mins by glutathione trapping method; format: ADME, Microsome; conditions: 0.5 h, 10 µM

- logD [13]: 1.6
SMILES: CC1(C)NC(=O)c2cc(S(=O)(=O)Nc3ccccc3)ccc2NC1=O

- IC50 [4]: > 100 µM
- IC50 [5]: > 100 µM
- IC50 [6]: > 10 µM
- IC50 [7]: > 10 µM
- inhibition (INH) [8]: Not Active
- inhibition (INH) [9]: Not Active
- Papp A→B at 2 h, 10 µM [10]: 3.1 ×10⁻⁶ cm/s
- pKa [11]: 6.9
- microsomal CLint at 1 µM [12]: < 5 µL/min/mg
SMILES: CC[C@]1(C)NC(=O)c2cc(S(=O)(=O)Nc3ccc(C(F)(F)F)cc3)ccc2NC1=O

- logD [13]: 2.3
SMILES: CCC1(C)NC(=O)c2cc(S(=O)(=O)Nc3ccc(OC(F)F)cc3)ccc2NC1=O (racemic)

- logD [13]: 1.6
SMILES: CCC1NC(=O)c2cc(S(=O)(=O)Nc3ccccc3)ccc2NC1=O (racemic)

- IC50 [4]: > 100 µM
- IC50 [5]: > 100 µM
- IC50 [6]: > 10 µM
- IC50 [7]: > 10 µM
- inhibition (INH) [8]: Not Active
- inhibition (INH) [9]: Not Active
- Ratio (Liver microsomes): 0
- Papp A→B at 2 h, 10 µM [10]: 36 ×10⁻⁶ cm/s
- microsomal CLint at 1 µM [12]: 221 µL/min/mg
SMILES: CCC1(C)NC(=O)c2cc(S(=O)(=O)N(C)c3ccccc3)ccc2NC1=O (racemic)

- IC50 [4]: > 100 µM
- IC50 [5]: > 100 µM
- IC50 [6]: > 10 µM
- IC50 [7]: > 10 µM
- inhibition (INH) [8]: Not Active
- inhibition (INH) [9]: Not Active
- Papp A→B at 2 h, 10 µM [10]: 2.4 ×10⁻⁶ cm/s
- pKa [11]: 8.7
- microsomal CLint at 1 µM [12]: < 5 µL/min/mg
- logD [13]: 1.9
SMILES: CCC1(C)NC(=O)c2cc(S(=O)(=O)Nc3ccccc3)ccc2NC1=O (racemic)

- logD [13]: 1.8
SMILES: CCC1(C)NC(=O)c2cc(S(=O)(=O)NCc3ccccc3)ccc2NC1=O (racemic)

- IC50 [4]: > 100 µM
- IC50 [5]: > 100 µM
- IC50 [6]: > 10 µM
- IC50 [7]: > 10 µM
- inhibition (INH) [8]: Not Active
- inhibition (INH) [9]: Not Active
- Ratio (Liver microsomes): 0.1
- Papp A→B at 2 h, 10 µM [10]: 6.4 ×10⁻⁶ cm/s
- pKa [11]: 7.2
- microsomal CLint at 1 µM [12]: < 5 µL/min/mg
- logD [13]: 1.9
SMILES: CCC1(C)NC(=O)c2cc(S(=O)(=O)Nc3ccccc3Cl)ccc2NC1=O (racemic)

- logD [13]: 3.1
SMILES: CCC1(C)NC(=O)c2cc(S(=O)(=O)Nc3ccc(C(F)(F)F)cc3)ccc2NC1=O (racemic)

- IC50 [4]: > 100 µM
- IC50 [5]: > 100 µM
- IC50 [6]: > 10 µM
- IC50 [7]: > 10 µM
- inhibition (INH) [8]: Not Active
- inhibition (INH) [9]: Not Active
- Papp A→B at 2 h, 10 µM [10]: 1.5 ×10⁻⁶ cm/s
- pKa [11]: 5.6
- microsomal CLint at 1 µM [12]: 16 µL/min/mg
- logD [13]: 1.8
SMILES: CCC1(C)NC(=O)c2cc(S(=O)(=O)Nc3ccc(OC)cc3)ccc2NC1=O (racemic)

Continued, compound first:

SMILES: CC[C@]1(C)NC(=O)c2cc(S(=O)(=O)Nc3ccc(F)cc3F)ccc2NC1=O
- inhibition in vivo at 5 mg/kg (Mus musculus [1]): 116%
- inhibition in vivo at 150 mg/kg (Mus musculus [2]): 68%
- Tmax [3]: 30 min
- IC50 [4]: > 100 µM
- IC50 [5]: > 100 µM
- IC50 [6]: > 10 µM
- IC50 [7]: > 10 µM
- inhibition (INH) [8]: Not Active
- inhibition (INH) [9]: Not Active
- Papp A→B at 2 h, 10 µM [10]: 3.3 ×10⁻⁶ cm/s
- pKa [11]: 7.3
- microsomal CLint at 1 µM [12]: < 5 µL/min/mg

SMILES: O=C1NC2(CCCC2)C(=O)Nc2ccc(S(=O)(=O)Nc3ccc(Cl)cc3)cc21
- logD [13]: 3

SMILES: CCC1(CC)NC(=O)c2cc(S(=O)(=O)Nc3ccc(F)cc3F)ccc2NC1=O
- logD [13]: 2.2

SMILES: CCC1(CC)CNc2ccc(S(=O)(=O)Nc3ccc(F)cc3F)cc2C(=O)N1
- IC50 [4]: > 100 µM
- IC50 [5]: > 100 µM
- IC50 [6]: > 10 µM
- IC50 [7]: > 10 µM
- inhibition (INH) [8]: Not Active
- inhibition (INH) [9]: Not Active
- Ratio (Liver microsomes): 1.8
- Papp A→B at 2 h, 10 µM [10]: 16 ×10⁻⁶ cm/s
- pKa [11]: 8
- microsomal CLint at 1 µM [12]: 40 µL/min/mg

SMILES: CC[C@]1(C)NC(=O)c2cc(S(=O)(=O)Nc3ccc(OC(F)F)cc3)ccc2NC1=O
- IC50 [4]: > 100 µM
- IC50 [5]: > 100 µM
- IC50 [6]: > 10 µM
- IC50 [7]: > 10 µM
- inhibition (INH) [8]: Not Active
- inhibition (INH) [9]: Not Active
- Papp A→B at 2 h, 10 µM [10]: 1.1 ×10⁻⁶ cm/s
- pKa [11]: 7.9
- microsomal CLint at 1 µM [12]: 2.8 µL/min/mg

SMILES: CCC1(C)NC(=O)c2cc(S(=O)(=O)Nc3ccc(F)cc3F)ccc2NC1=O (racemic)
- logD [13]: 1.8

SMILES: CCCC1(C)NC(=O)c2cc(S(=O)(=O)Nc3ccc(F)cc3F)ccc2NC1=O (racemic)
- logD [13]: 2.2

SMILES: CCC1(C)NC(=O)c2cc(S(=O)(=O)Nc3ccc(Cl)cc3)ccc2N(C)C1=O (racemic)
- IC50 [4]: > 100 µM
- IC50 [5]: > 100 µM
- IC50 [6]: > 10 µM
- IC50 [7]: > 10 µM
- inhibition (INH) [8]: Not Active
- inhibition (INH) [9]: Not Active
- Papp A→B at 2 h, 10 µM [10]: 20 ×10⁻⁶ cm/s
- pKa [11]: 7.9
- microsomal CLint at 1 µM [12]: 7 µL/min/mg

SMILES: CCC1(C)C(=O)Nc2ccc(S(=O)(=O)Nc3ccc(F)cc3F)cc2C(=O)N1C (racemic)
- IC50 [4]: > 100 µM
- IC50 [5]: > 100 µM
- IC50 [6]: > 10 µM
- IC50 [7]: > 10 µM
- inhibition (INH) [8]: Not Active
- inhibition (INH) [9]: Not Active
- Papp A→B at 2 h, 10 µM [10]: 8.1 ×10⁻⁶ cm/s
- pKa [11]: 7.1
- microsomal CLint at 1 µM [12]: 9 µL/min/mg

SMILES: CCC1(C)NC(=O)c2cc(S(=O)(=O)NC3CCCCC3)ccc2NC1=O (racemic)
- logD [13]: 2
